Reference: the supplement of paper PMC5908809

How the values were obtained:
IMC-1 (IL-2 20 ng/mL) [1] = assay: percent inhibition of viability; higher = more inhibition; details: 72 h
[2] = tested on: normal primary NK cells, pool 1 (3 donors), resting (IL-2 0 ng/mL); assay: as above; details: 72 h
NKL (IL-2 2.5 ng/mL) [3] = assay: as above; details: 72 h
KAI3 (IL-2 2.5 ng/mL) [4] = assay: as above; details: 72 h
[5] = tested on: normal primary NK cells, pool 3 (3 donors) (IL-2 2.5 ng/mL); assay: as above; details: 72 h
[6] = tested on: normal primary NK cells, pool 2 (3 donors) (IL-2 2.5 ng/mL); assay: as above; details: 72 h
[7] = tested on: normal primary NK cells, pool 1 (3 donors) (IL-2 2.5 ng/mL); assay: as above; details: 72 h
YT (IL-2 2.5 ng/mL) [8] = assay: as above; details: 72 h
DERL-7 (IL-2 2.5 ng/mL) [9] = assay: as above; details: 72 h
KHYG-1 (IL-2 2.5 ng/mL) [10] = assay: as above; details: 72 h
SNK-6 (IL-2 2.5 ng/mL) [11] = assay: as above; details: 72 h
NK-YS (IL-2 2.5 ng/mL) [12] = assay: as above; details: 72 h
NK-92 (IL-2 2.5 ng/mL) [13] = assay: as above; details: 72 h
[14] = tested on: normal NK cells expanded with K562-aAPC; assay: drug sensitivity score (DSS) (DSS units); higher = more sensitive; extreme values may be limits of the assay; details: 72 h; IL-2 2.5 ng/mL
Description: (§1)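 Drug sensitivity and resistance testing on K562-aAPC-expanded normal NK cells: 5 concentrations (10-fold steps over a 10,000-fold range), 72 h at 37 °C, viability by CellTiter-Glo normalised to DMSO and benzethonium chloride controls; DSS from the fitted curve.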

[15] = tested on: normal NK cells expanded with K562-aAPC; assay: percent inhibition of viability; higher = more inhibition; details: 72 h, IL-2 2.5 ng/mL
Description: as §1

IMC-1 (IL-2 20 ng/mL) [16] = assay: drug sensitivity score (DSS) (DSS units); higher = more sensitive; extreme values may be limits of the assay; details: 72 h
[17] = tested on: normal primary NK cells, pool 1 (3 donors), resting (IL-2 0 ng/mL); assay: as above; details: 72 h
NKL (IL-2 2.5 ng/mL) [18] = assay: as above; details: 72 h
KAI3 (IL-2 2.5 ng/mL) [19] = assay: as above; details: 72 h
[20] = tested on: normal primary NK cells, pool 3 (3 donors) (IL-2 2.5 ng/mL); assay: as above; details: 72 h
[21] = tested on: normal primary NK cells, pool 2 (3 donors) (IL-2 2.5 ng/mL); assay: as above; details: 72 h
[22] = tested on: normal primary NK cells, pool 1 (3 donors) (IL-2 2.5 ng/mL); assay: as above; details: 72 h
YT (IL-2 2.5 ng/mL) [23] = assay: as above; details: 72 h
DERL-7 (IL-2 2.5 ng/mL) [24] = assay: as above; details: 72 h
KHYG-1 (IL-2 2.5 ng/mL) [25] = assay: as above; details: 72 h
SNK-6 (IL-2 2.5 ng/mL) [26] = assay: as above; details: 72 h
NK-YS (IL-2 2.5 ng/mL) [27] = assay: as above; details: 72 h
NK-92 (IL-2 2.5 ng/mL) [28] = assay: as above; details: 72 h

O=C(O)CCCc1ccc(N(CCCl)CCCl)cc1 [Chlorambucil] (max concentration tested 10000 nM)
percent inhibition of viability [%]
Details | 1 nM | 10 nM | 100 nM | 1000 nM | 10000 nM
DERL-7 (IL-2 2.5 ng/mL) [9] | -3.58 | -2.26 | -1.57 | 2.26 | 35.3
IMC-1 (IL-2 20 ng/mL) [1] | -7.26 | -1.26 | -5.09 | -7.21 | 20.6
KAI3 (IL-2 2.5 ng/mL) [4] | -12.3 | 0 | 13 | 21.6 | 84.8
KHYG-1 (IL-2 2.5 ng/mL) [10] | -4.53 | -1.14 | -2.99 | -0.01 | 59
NK-92 (IL-2 2.5 ng/mL) [13] | -16.2 | -10.6 | -3.93 | -0.43 | 69.5
NK-YS (IL-2 2.5 ng/mL) [12] | -6.87 | -0.61 | 3.17 | 13.6 | 84.7
NKL (IL-2 2.5 ng/mL) [3] | -13 | -7.71 | -6.04 | 27.6 | 92.1
SNK-6 (IL-2 2.5 ng/mL) [11] | 9.02 | 25.1 | -1.14 | 10.8 | 92.4
YT (IL-2 2.5 ng/mL) [8] | -0.58 | -2.33 | -2.72 | -5.92 | 9.19
[2] | -14.6 | -7.61 | 2.57 | 19.2 | 88.2
[5] | -13.1 | -5.69 | -6.16 | -0.15 | 53
[6] | -11.7 | -6.52 | -4.85 | 1.94 | 69.2
[7] | -5.48 | -9.5 | 0.36 | 3.15 | 70.4
[15] | -0.47 | -10 | -5.18 | -1.85 | 46.2

Details | drug sensitivity score
DERL-7 (IL-2 2.5 ng/mL) [24] | 2
IMC-1 (IL-2 20 ng/mL) [16] | 0.4
KAI3 (IL-2 2.5 ng/mL) [19] | 7.66
KHYG-1 (IL-2 2.5 ng/mL) [25] | 3.19
NK-92 (IL-2 2.5 ng/mL) [28] | 3.79
NK-YS (IL-2 2.5 ng/mL) [27] | 6.96
NKL (IL-2 2.5 ng/mL) [18] | 9.13
SNK-6 (IL-2 2.5 ng/mL) [26] | 6.91
YT (IL-2 2.5 ng/mL) [23] | 0
[14] | 2.23
[17] | 7.95
[20] | 2.81
[21] | 4.06
[22] | 4.31

Cn1ncnc1[C@H]1c2n[nH]c(=O)c3cc(F)cc(c23)N[C@@H]1c1ccc(F)cc1 [Talazoparib] (max concentration tested 1000 nM)
percent inhibition of viability [%]
Details | 0.1 nM | 1 nM | 10 nM | 100 nM | 1000 nM
DERL-7 (IL-2 2.5 ng/mL) [9] | 4.61 | 7.22 | 13.7 | 21.3 | 37.8
IMC-1 (IL-2 20 ng/mL) [1] | -4.58 | -1.47 | 11.2 | 18.6 | 78.1
KAI3 (IL-2 2.5 ng/mL) [4] | 3.2 | 10.3 | 25.1 | 48.3 | 74.7
KHYG-1 (IL-2 2.5 ng/mL) [10] | 0.2 | -0.57 | 14.9 | 31.4 | 71.2
NK-92 (IL-2 2.5 ng/mL) [13] | 15.4 | 8.78 | 27.8 | 36.7 | 87.8
NK-YS (IL-2 2.5 ng/mL) [12] | -2.27 | -0.36 | 27.9 | 81.3 | 96.2
NKL (IL-2 2.5 ng/mL) [3] | -2.21 | 28.1 | 72 | 84.1 | 88.6
SNK-6 (IL-2 2.5 ng/mL) [11] | 1.83 | 6.37 | 16.4 | 33.1 | 90.8
YT (IL-2 2.5 ng/mL) [8] | -2.25 | 0.5 | 0.86 | -5.82 | -1.36
[2] | 10.7 | -5.43 | -1.52 | -18.5 | 4.03
[5] | -7.78 | -0.35 | 2.46 | 5.72 | 21.3
[6] | -10.4 | 6.14 | 1.12 | 1.32 | 21.5
[7] | 7.55 | -5.65 | 4.49 | -2.17 | -1.39
[15] | 2.07 | 3.56 | 9.75 | 17.4 | 45.1

Details | drug sensitivity score
DERL-7 (IL-2 2.5 ng/mL) [24] | 5.22
IMC-1 (IL-2 20 ng/mL) [16] | 7.06
KAI3 (IL-2 2.5 ng/mL) [19] | 12.7
KHYG-1 (IL-2 2.5 ng/mL) [25] | 7.93
NK-92 (IL-2 2.5 ng/mL) [28] | 12
NK-YS (IL-2 2.5 ng/mL) [27] | 18.4
NKL (IL-2 2.5 ng/mL) [18] | 27.7
SNK-6 (IL-2 2.5 ng/mL) [26] | 8.8
YT (IL-2 2.5 ng/mL) [23] | 0
[14] | 4.21
[17] | 0
[20] | 1.31
[21] | 0.86
[22] | 0
